The source of these data is PubChem BioAssay (NCI).

Some test systems named below: ACHN renal; EKVX NSCLC; IGROV1 ovarian; K-562 leukemia; NCI-H226 lung; NCI-H23 lung; OVCAR-5 ovarian; OVCAR-8 ovarian; SF-295 CNS; MDA-N.
Common to all, as to test: NCI tumour cell line growth inhibition, 48 h

Molecules are shown by their SMILES. “And” between values parts separate entries of the source, which are not always exact repeats. Equal values may be shown once.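 Each compound was tested at five concentrations against cells in 96-well plates for 48 hours. GI50 = concentration required for 50% inhibition of growth. Definition used: TGI = concentration required for complete inhibition of growth.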

For `COc1ccc(N=C(C)C(C)=Nc2ccc(OC)cc2)cc1`, the TGI in the experiment with ACHN renal, in the experiment on EKVX NSCLC, in the experiment on IGROV1 ovarian, in the experiment on K-562 leukemia, in the experiment on NCI-H226 lung and with NCI-H23 lung was more than 100 µM in each case. The TGI with OVCAR-5 ovarian, in the experiment with OVCAR-8 ovarian and with SF-295 CNS was more than 100 µM each time.
Regarding `CC(C)(C1=NC(C(C)(C)C)CO1)C1=N[C@@H](C(C)(C)C)CO1` (stereo partly specified), the TGI with ACHN renal, in the experiment on EKVX NSCLC, in the experiment on IGROV1 ovarian, with K-562 leukemia, in the experiment with NCI-H226 lung and in the experiment with NCI-H23 lung was more than 100 µM each time. Also, the TGI in the experiment on OVCAR-5 ovarian, in the experiment on OVCAR-8 ovarian and in the experiment on SF-295 CNS was more than 100 µM in each case.
`COc1ccc(-c2c(/C=N/OCC(=O)O)c3sc4ccccc4n3c2/C=N/OCC(=O)O)cc1`: the TGI in the experiment with ACHN renal, in the experiment with EKVX NSCLC, in the experiment on IGROV1 ovarian, in the experiment on K-562 leukemia, with MDA-N and with NCI-H23 lung was more than 50 µM in each case. Also, the TGI in the experiment with OVCAR-5 ovarian, with OVCAR-8 ovarian and in the experiment with SF-295 CNS was more than 50 µM throughout.
As for `CC(C)(C)N=C1C(=O)C2(C)CCC1C2(C)C` (stereo unspecified), the TGI in the experiment with ACHN renal, in the experiment on EKVX NSCLC, with IGROV1 ovarian, in the experiment on K-562 leukemia, with NCI-H226 lung and with NCI-H23 lung was more than 100 µM throughout. For the same molecule, the TGI with OVCAR-5 ovarian, in the experiment with OVCAR-8 ovarian and in the experiment with SF-295 CNS was more than 100 µM in each case.
On to `Cc1c2cc[n+](C)cc2c(C)c2c1[nH]c1ccc(OCC(F)(F)F)cc12`, for which the GI50 with ACHN renal is 12 µM and > 100 µM; in the experiment with NCI-H226 lung, 0.581 µM; with OVCAR-5 ovarian, 12 µM and > 100 µM. Besides, the TGI with ACHN renal was more than 100 µM; in the experiment on EKVX NSCLC, 82.9 µM; in the experiment on IGROV1 ovarian, more than 100 µM; in the experiment on K-562 leukemia, more than 56.6 µM; in the experiment with NCI-H226 lung it was 1.69 µM and 3.75 µM; in the experiment with NCI-H23 lung, 5.8 µM and 9.49 µM. For the same molecule, the TGI in the experiment on OVCAR-5 ovarian was more than 100 µM; in the experiment with OVCAR-8 ovarian, more than 100 µM; in the experiment with SF-295 CNS, 2.22 µM.
Regarding `C=CC(C)(C)/C(=C\CO[Si](C(C)C)(C(C)C)C(C)C)C(=O)N(C)c1ccccc1I`, the TGI in the experiment with ACHN renal is 25.8 µM; in the experiment on EKVX NSCLC, 32.1 µM; in the experiment on IGROV1 ovarian it was 30.3 µM; with MDA-N, 33.6 µM; with NCI-H23 lung it was 23.6 µM; with OVCAR-5 ovarian, 27.5 µM. For the same molecule, the values for the TGI with OVCAR-8 ovarian and in the experiment with SF-295 CNS were 28 µM and 28.8 µM, respectively.
Turning to `CN(C)Cc1cc(/C=C/C(=O)c2ccc(Br)cc2)cc(CN(C)C)c1O`, the TGI is 24.7 µM with ACHN renal; 55.2 µM with EKVX NSCLC; 23.4 µM with IGROV1 ovarian; more than 100 µM in the experiment with K-562 leukemia; 32.6 µM in the experiment on MDA-N; more than 100 µM with OVCAR-5 ovarian. Further, the values for the TGI with OVCAR-8 ovarian and in the experiment on SF-295 CNS were more than 100 µM and 38.7 µM, respectively.
For `CSCSCC(CO)NC(=O)/C=C\c1c(C)[nH]c(=O)[nH]c1=O` (stereo unspecified), the TGI with EKVX NSCLC was found to be 153 µM; in the experiment on IGROV1 ovarian, 320 µM; in the experiment with K-562 leukemia, 111 µM; in the experiment with NCI-H226 lung, 309 µM; with NCI-H23 lung, 120 µM; with OVCAR-5 ovarian, 277 µM. Also, the results for the TGI with OVCAR-8 ovarian and with SF-295 CNS were 89.9 µM and 209 µM, respectively. For the same molecule, the GI50 in the experiment on NCI-H226 lung is 49.8 µM; in the experiment with SF-295 CNS it was 62.1 µM.
As for `C=C1c2nc3ccccc3n2C=C(c2ccccc2)N1c1ccc(C)cc1`, the TGI in the experiment with ACHN renal, in the experiment on EKVX NSCLC, with IGROV1 ovarian, in the experiment with K-562 leukemia, in the experiment on NCI-H226 lung and in the experiment with NCI-H23 lung was more than 100 µM throughout. For the same molecule, the TGI in the experiment with OVCAR-5 ovarian, in the experiment with OVCAR-8 ovarian and in the experiment with SF-295 CNS was more than 100 µM throughout.
In the case of `c1ccc(C2N=C(c3ccccn3)C(c3ccccn3)=NC2c2ccccc2)cc1` (stereo unspecified), the TGI with ACHN renal, with EKVX NSCLC, in the experiment with IGROV1 ovarian, with K-562 leukemia, in the experiment on NCI-H226 lung and in the experiment with NCI-H23 lung was more than 100 µM throughout. Besides, the TGI in the experiment on OVCAR-5 ovarian, with OVCAR-8 ovarian and with SF-295 CNS was more than 100 µM each time.
As for `COC(=O)c1c(CC(=O)OC(C)C)cc2n(c1=O)Cc1c-2nc2ccccc2c1OC`, the TGI in the experiment on ACHN renal, in the experiment with EKVX NSCLC, with IGROV1 ovarian, with K-562 leukemia, with NCI-H226 lung and in the experiment with NCI-H23 lung was more than 100 µM in each case. Also, the TGI in the experiment on OVCAR-5 ovarian, in the experiment on OVCAR-8 ovarian and in the experiment on SF-295 CNS was more than 100 µM throughout.
Regarding `N/C(=N\N=C/c1c(O)cc(O)cc1O)NO`, the TGI was more than 94.5 µM with EKVX NSCLC; more than 100 µM in the experiment with IGROV1 ovarian; more than 100 µM in the experiment on K-562 leukemia; more than 100 µM in the experiment with NCI-H226 lung; more than 100 µM in the experiment with NCI-H23 lung; more than 100 µM with OVCAR-5 ovarian. In addition, the TGI with OVCAR-8 ovarian and in the experiment on SF-295 CNS was more than 100 µM in each case.
As for `O=c1[nH]c(=S)[nH]c2c1CCCN2`, the TGI in the experiment with ACHN renal, with EKVX NSCLC, in the experiment on IGROV1 ovarian, in the experiment with NCI-H23 lung, in the experiment on OVCAR-5 ovarian and with OVCAR-8 ovarian was more than 100 µM each time. In the experiment with SF-295 CNS, this molecule came in with a TGI of more than 100 µM.
On to `Cc1ccc(N2Cc3c(ccc4ccccc34)OP2(=S)N2CCCC2)cc1` (stereo unspecified), for which the TGI in the experiment with EKVX NSCLC, with IGROV1 ovarian, with K-562 leukemia, in the experiment with NCI-H226 lung, with NCI-H23 lung and in the experiment on OVCAR-5 ovarian was more than 100 µM in each case. The TGI in the experiment with OVCAR-8 ovarian and in the experiment with SF-295 CNS was more than 100 µM in each case.
On to `COc1ccc(-c2nc(-c3cnccn3)n(C/C=C/c3ccccc3)n2)cc1`, for which the TGI with IGROV1 ovarian, with K-562 leukemia, in the experiment with MDA-N, in the experiment with NCI-H23 lung, with OVCAR-5 ovarian and in the experiment on OVCAR-8 ovarian was more than 100 µM each time. In the experiment on SF-295 CNS, this molecule came in with a TGI of 73.4 µM.
As for `COC1OC(C)/C(=N/O)C2OC(C)(C)OC12` (stereo unspecified), the TGI in the experiment on ACHN renal, with EKVX NSCLC, in the experiment on IGROV1 ovarian, with K-562 leukemia, in the experiment on NCI-H226 lung and in the experiment with NCI-H23 lung was more than 100 µM throughout. Also, the TGI with OVCAR-5 ovarian, in the experiment with OVCAR-8 ovarian and in the experiment on SF-295 CNS was more than 100 µM each time.
`O=Cn1c2ccccc2c2ccccc21`: the TGI in the experiment on ACHN renal, with EKVX NSCLC, in the experiment with IGROV1 ovarian, in the experiment on K-562 leukemia, in the experiment on NCI-H23 lung and in the experiment on OVCAR-5 ovarian was more than 100 µM in each case. Besides, the TGI with OVCAR-8 ovarian and in the experiment on SF-295 CNS was more than 100 µM in each case.
As to `COc1cc(/C=C2\N=C(c3ccccc3)N(c3cc4cc(Sc5ccccc5)ccc4[nH]3)C2=O)ccc1O`, the TGI with ACHN renal, in the experiment on EKVX NSCLC, in the experiment on IGROV1 ovarian, with K-562 leukemia, with NCI-H226 lung and in the experiment with NCI-H23 lung was more than 50 µM throughout. Also, the TGI in the experiment on OVCAR-5 ovarian and with OVCAR-8 ovarian was more than 50 µM in each case.
Turning to `CCCCn1c(-c2ccccc2)cs/c1=N\NC(=O)Cn1c(C)nc2ccccc21`, the TGI with ACHN renal, in the experiment on EKVX NSCLC, in the experiment with IGROV1 ovarian, with K-562 leukemia, with NCI-H226 lung and with NCI-H23 lung was more than 100 µM throughout. Further, the TGI in the experiment with OVCAR-5 ovarian, with OVCAR-8 ovarian and in the experiment on SF-295 CNS was more than 100 µM each time.
For the molecule `CCC1OC2(C)CC(C#N)(C#N)C1(C#N)C(=N)O2` (stereo unspecified), the TGI with ACHN renal, in the experiment with EKVX NSCLC, in the experiment with IGROV1 ovarian, in the experiment on K-562 leukemia, with MDA-N and with NCI-H23 lung was more than 100 µM throughout. The TGI in the experiment with OVCAR-5 ovarian and in the experiment with SF-295 CNS was more than 100 µM in each case.
For `O=c1cc(-c2ccccc2)oc2cc(OCCCCCCCCCCOc3ccc4c(=O)cc(-c5ccccc5)oc4c3)ccc12`, the TGI in the experiment on ACHN renal, with EKVX NSCLC, with IGROV1 ovarian, with K-562 leukemia, in the experiment with NCI-H23 lung and in the experiment on OVCAR-5 ovarian was more than 100 µM throughout. The TGI with OVCAR-8 ovarian and in the experiment with SF-295 CNS was more than 100 µM in each case.
For the molecule `C/C(=N/NC(N)=S)C(CN1CCOCC1)C(C1=C(O)c2ccccc2OC1)c1ccccc1` (stereo unspecified), the TGI in the experiment with ACHN renal, in the experiment with EKVX NSCLC, with IGROV1 ovarian, with K-562 leukemia, in the experiment with NCI-H226 lung and in the experiment with NCI-H23 lung was more than 100 µM throughout. In addition, the TGI in the experiment with OVCAR-5 ovarian, with OVCAR-8 ovarian and in the experiment on SF-295 CNS was more than 100 µM each time.
Turning to `C/C(=N\Nc1nc2cc(F)ccc2s1)c1ccccn1`, the TGI in the experiment with ACHN renal was 1.35 µM; in the experiment on K-562 leukemia, more than 43.8 µM; with NCI-H23 lung, 2.23 µM; in the experiment on OVCAR-5 ovarian, 50.1 µM; in the experiment with OVCAR-8 ovarian, 1.79 µM; in the experiment on SF-295 CNS, 4.67 µM.
